Assay [1] has as its system Staphylococcus aureus. The assay can be described thus: In vivo activity against Staphylococcus aureus in an acute lethal mouse model. As to conditions: mice infected intraperitoneally, dosed 1 h and 4 h post-infection, survivors on seventh day. The protocol:
The in vivo potency of these compounds is exemplified by the data summarized in Table X. Determinations of in vivo efficacy are performed by inoculating mice intraperitoneally with cultures of the infecting organism diluted to produce 100% mortality in control animals within twenty-four hours. The culture of S. aureus used to infect the animals was diluted to the required bacterial density using 5% aqueous hog gastric mucin. The compounds are dissolved or suspended in 0.25% aqueous Methocel® (Methocel®: Hydroxypropyl Methylcullulose, E15 Premium, Dow Chemical Company) for oral administration or sterile distilled water containing 5% dimethylsulfoxide (Fisher Scientific Company, Fairlawn, N.J.) for subcutaneous administration. The mice are dosed at one hour and at four hours post-infection. Mortality is recorded daily until test determination seven days post infection. The number of survivors in each treatment group on the seventh day after infection is used in the calculation of the ED50, the dose of compound that protects 50% of the mice (Litchfield,J. T. and Wildoxon. A simulated method for evaluating dose-effect experiments. J. Pharmacol Exp. Ther., 98:99-113, 1949).

Assay [2] has as its system Staphylococcus aureus. The assay can be described thus: In vitro broth microdilution, 24-hour minimal inhibitory concentration (MIC). The class given is cell-based. The following applies: Mueller-Hinton broth; for MIC: read-out: Minimum Inhibitory Concentration. The text has this: (§1) A standard microdilution method (National Committee for Clinical Standards. Tentative standard M7-T. Standard methods for dilution antimicrobial susceptibility tests for bacteria that grow aerobically. National Committee for Clinical Laboratory Standards, Villanova, Pa. 1982) with Mueller-Hinton broth is used to determine the 24-hour minimal inhibitory concentrations (MIC's) for test strains of Staphylococcus aureus and Escherichia coli.

Assay [3] has as its system Escherichia coli. The description is as above. The format is cell-based. As to conditions: Mueller-Hinton broth, read-out: Minimum Inhibitory Concentration.
Description: as §1

The mark [4] stands for this setting: Staphylococcus aureus, sc, 168 h, Subcutaneous Administration, read-out: ED50.
The mark [5] stands for this setting: Staphylococcus aureus, 168 h, Oral Administration, read-out: ED50.

Usually ED50 stands for the dose that gives a 50% effect, or the effect in half of the subjects.

Converted amounts (≈) assume the structure as drawn. Structures can show the parent of a compound that is named as a salt. Where two headings read alike, the source gives them in different places.

Consider `CC(=O)NC[C@H]1CN(c2ccc(-c3csc(C)n3)cc2)C(=O)O1` [Example 132], for which the ED50 in assay [1] (setting [4]) came to 17 mg/kg. Also, the figures for the MIC in assay [2] and in assay [3] were 4 µg/mL (≈ 12.1 µM) and more than 128 µg/mL, respectively.
As for `CC(=O)NC[C@H]1CN(c2ccc(-c3ccc(C=O)cc3)cc2)C(=O)O1` [Example 21, (l)-N-[3-(4-(4'-Formylphenyl)phenyl)-2-oxooxazolidin-5-ylmethyl]acetamide], the ED50 in assay [1] (setting [5]) is 44.7 mg/kg; in assay [1] (setting [4]), more than 90 mg/kg. For the same compound, the results for the MIC in assay [2] and in assay [3] were less than 0.13 µg/mL and more than 128 µg/mL, respectively.
For `CC(=O)NC[C@H]1CN(c2ccc(-c3ccc(C(=O)CCC(=O)O)cc3)cc2)C(=O)O1` [Example 9] the same measures were more than 90 mg/kg, 16.8 mg/kg, less than 0.13 µg/mL and more than 128 µg/mL.
Consider `CC(=O)NC[C@H]1CN(c2ccc(-c3cccc([S+](C)[O-])c3)cc2)C(=O)O1` (single isomer, unassigned) [Example 65], for which, in assay [1] (setting [4]), the ED50 was determined as 4.3 mg/kg. Also, the MIC in assay [2] was 2 µg/mL (≈ 5.37 µM); in assay [3], more than 128 µg/mL.
Turning to `CCCCCN(CCCCC)Cc1ccc(-c2ccc(N3C[C@H](CNC(C)=O)OC3=O)cc2)cc1` [Example 47], the MIC was 0.5 µg/mL (≈ 1.04 µM) in assay [2] and more than 128 µg/mL in assay [3].
Turning to `CCc1cccc(-c2ccc(N3C[C@H](CNC(C)=O)OC3=O)cc2)c1` [Example 70], the ED50 in assay [1] (setting [5]) was found to be 17 mg/kg; in assay [1] (setting [4]), 10 mg/kg. Also, the results for the MIC in assay [2] and in assay [3] were 2 µg/mL (≈ 5.91 µM) and more than 128 µg/mL, respectively.
In the same order, the values of `CC(=O)NC[C@H]1CN(c2ccc(-c3cc(O)ccc3O)cc2)C(=O)O1` [Example 113, (l)-N-[3-(4-(2',5'-Dihydroxyphenyl)phenyl)-2-oxooxazolidin-5-ylmethyl]acetamide] are more than 90 mg/kg, 68.3 mg/kg, 16 µg/mL (≈ 46.7 µM) and more than 128 µg/mL.
For `CC(=O)NC[C@H]1CN(c2ccc(-c3ccc(C(C)=NOC(=O)CCC(=O)O)cc3)cc2)C(=O)O1` [Example 23, Sodium Salt of Succinate Hemiester of (l)-N-[3-(4-(4'-(1-Hydroxyiminoethyl)phenyl)phenyl)-2-oxooxazolidin-5-ylmethyl]acetamide] the same measures were 17.3 mg/kg, 24.3 mg/kg, 1 µg/mL and more than 128 µg/mL.
The compound `CC(=O)NC[C@H]1CN(c2ccc(-c3ccc(C(C)OC(=O)CCC(=O)O)cc3)cc2)C(=O)O1` (some centres unmarked) [Example 30] came in with an ED50 in assay [1] (Subcutaneous Administration, 10080 min) of 9.8 mg/kg. The “Minimum Inhibitory Concentration” value in assay [2] was determined as 4 µg/mL.
As for `COc1ccc(-c2ccc(N3C[C@H](CNC(C)=O)OC3=O)cc2)cc1` [Example 75], the MIC was less than 0.13 µg/mL in assay [2] and more than 128 µg/mL in assay [3].
For `CC(=O)NC[C@H]1CN(c2ccc(-c3ccc(C(C)NN4CCN(C)CC4)cc3)cc2)C(=O)O1` (single isomer, unassigned) [Example 26, (l)-N-[3-(4-(4'-(1-(4-Methylpiperazinylamino)ethyl))phenyl)phenyl-2-oxooxazolidin-5-ylmethyl]acetamide] the same measures were 1 µg/mL (≈ 2.21 µM) and more than 128 µg/mL.
`CC(=O)NC[C@H]1CN(c2ccc(-c3ccc(OCCN(C)C)cc3)cc2)C(=O)O1` [Example 66, (l)-N-[3-(4-(4'-N,N-Dimethylaminoethyloxyphenyl)phenyl)-2-oxooxazolidin-5-ylmethyl]acetamide]: the values for the MIC in assay [2] and in assay [3] were 0.5 µg/mL (≈ 1.26 µM) and more than 128 µg/mL, respectively.
For `CC(=O)NCC1CN(c2ccc(-c3ccc(N(C)C)cc3)cc2)C(=O)O1` (centres unmarked) [Example 115] the same measures were 16 µg/mL (≈ 45.3 µM) and more than 128 µg/mL.
In the same order, the values of `CCCCCCCCN=Cc1ccc(-c2ccc(N3C[C@H](CNC(C)=O)OC3=O)cc2)cc1` [Example 48] are less than 0.13 µg/mL and more than 128 µg/mL.
In the same order, the values of `CC(=O)NC[C@H]1CN(c2ccc(-c3cncc4ccccc34)cc2)C(=O)O1` [Example 92] are 2 µg/mL (≈ 5.53 µM) and more than 128 µg/mL.
On to `CC(=O)NC[C@H]1CN(c2ccc(-c3ccc(C(=O)CC(C)(C)C(=O)O)cc3)cc2)C(=O)O1` [Example 10], for which the MIC in assay [2] is 0.5 µg/mL (≈ 1.14 µM); in assay [3] it was more than 128 µg/mL.

The values are drawn from patent publication US5254577A, “Aminomethyloxooxazolidinyl arylbenzene derivatives useful as antibacterial agents” (The Du Pont Merck Pharmaceutical Company, priority 1992, dated 1993).
